Assay results published in patent US11767341B2, “Lincosamide antibiotics and uses thereof” (President and Fellows of Harvard College, priority 2017, dated 2023).
Converted amounts (≈) assume the structure as drawn. Where two headings read alike, the source gives them in different places.

Columns and labels:
Test in all cases: MIC determination
Type in all cases: cell-based
S. aureus ATCC 29213 = system: S. aureus ATCC 29213
[1] = system: S. aureus MP-549 msr(a) USA 300; conditions: Staphylococcus aureus, USA300, S. aureus MP-549 msr(a) USA 300
S. pneumoniae ATCC 49619 = conditions: Streptococcus pneumoniae, ATCC49619; S. pneumoniae ATCC 49619; read-out: MIC
S. pyogenes ATCC 19615 = conditions: S. pyogenes ATCC 19615
E. faecalis ATCC 29212 = conditions: Enterococcus faecalis
K. pneumoniae ATCC 10031 = conditions: Klebsiella pneumoniae, ATCC10031
E. coli ATCC 25922 = conditions: Escherichia coli
E. coli MP-9 ΔTolC = system: E. coli MP-9 ΔTolC
[2] = system: E. coli MP-74 LptD mutant
H. influenzae ATCC 49247 = system: H. influenzae ATCC 49247
S. aureus BAA 977 iErmA = conditions: Staphylococcus aureus, BAA977
S. aureus MMX 3035 cErmA = conditions: Staphylococcus aureus, MMX3035CERMA; S. aureus MMX 3035 cErmA; read-out: MIC
[3] = system: S. pneumoniae MMX 3028 cErmB; conditions: Streptococcus pneumoniae, MMX3028CERMB
[4] = system: S. pneumoniae MMX 3031 cMefA; conditions: Streptococcus pneumoniae, MMX3031CMEFA
[5] = system: S. pyogenes MMX 946 Macrolide-Resistant; conditions: Streptococcus pyogenes
[6] = system: E. faecalis MMX 847 Macrolide-Resistant; conditions: Enterococcus faecalis, read-out: MIC
[7] = Staphylococcus aureus, ATCC29213, S. aureus ATCC 29213, read-out: MIC
[8] = Streptococcus pyogenes, ATCC19615, read-out: MIC
[9] = Haemophilus influenzae, ATCC49247
[10] = K. pneumoniae ATCC 10031, read-out: MIC
[11] = ATCC25922, E. coli ATCC 25922, read-out: MIC
[12] = S. pneumoniae MMX 3028 cErmB, read-out: MIC
[13] = S. pyogenes MMX 946 MacRes, read-out: MIC
[14] = Haemophilus influenzae, ATCC49247, H. influenzae ATCC 49247, read-out: MIC
[15] = Staphylococcus aureus, ATCC29213

Compound | MIC (S. aureus ATCC 29213; [7]) [µg/mL] | MIC [1] [µg/mL] | MIC (S. pneumoniae ATCC 49619) [µg/mL] | MIC (S. pyogenes ATCC 19615; [8]) [µg/mL] | MIC (E. faecalis ATCC 29212; ATCC29212) [µg/mL] | MIC (K. pneumoniae ATCC 10031) [µg/mL] | MIC (E. coli ATCC 25922; ATCC25922) [µg/mL] | MIC (E. coli MP-9 ΔTolC; Escherichia coli) [µg/mL] | MIC ([2]; Escherichia coli) [µg/mL] | MIC (H. influenzae ATCC 49247; [9]) [µg/mL] | MIC (E. faecalis ATCC 29212; ATCC29212, read-out: MIC) [µg/mL] | MIC (E. coli ATCC 25922; [11]) [µg/mL] | MIC (S. aureus BAA 977 iErmA) [µg/mL] | MIC (S. aureus MMX 3035 cErmA) [µg/mL] | MIC [4] [µg/mL] | MIC ([6]; E. faecalis MMX 847 MacRes) [µg/mL] | also measured
CSC1O[C@H]([C@H](NC(=O)[C@H]2NC[C@@H]3CC(NCc4cccc(F)c4)CCO[C@H]32)[C@H](C)Cl)C(O)[C@@H](O)[C@H]1O (stereo partly drawn) [FSA-510073] | 16 (≈ 28.5 µM) | 16 (≈ 28.5 µM) | 8 (≈ 14.2 µM) | 2 (≈ 3.56 µM) | > 64 | > 64 | > 64 | > 64 | > 64 | > 64 | – | – | – | – | – | – | –
COc1ccc(C2=CCO[C@@H]3[C@H](CN[C@@H]3C(=O)N[C@H]([C@H](C)Cl)[C@H]3OC(SC)[C@H](O)[C@H](O)C3O)C2)cc1 (stereo partly drawn) [FSA-511020] | 0.5 (≈ 0.921 µM) | 1 (≈ 1.84 µM) | ≤ 0.06 | ≤ 0.06 | – | – | – | 64 (≈ 118 µM) | 64 (≈ 118 µM) | 64 (≈ 118 µM) | 4 (≈ 7.37 µM) | > 64 | – | – | – | – | MIC (K. pneumoniae ATCC 10031; [10]): > 64 µg/mL
CSC1O[C@H]([C@H](NC(=O)[C@H]2NC[C@@H]3CC(NCc4ccccc4F)CCO[C@H]32)[C@H](C)Cl)C(O)C(O)[C@H]1O (stereo partly drawn) [FSA-510072] | 64 (≈ 114 µM) | 64 (≈ 114 µM) | 30 (≈ 53.4 µM) | 8 (≈ 14.2 µM) | > 64 | > 64 | > 64 | > 64 | > 64 | > 64 | – | – | – | – | – | – | –
COc1ccc([C@H]2CCO[C@@H]3[C@H](CN[C@@H]3C(=O)N[C@H]([C@H](C)Cl)[C@H]3OC(SC)[C@H](O)[C@H](O)C3O)C2)cc1 (stereo partly drawn) [FSA-512080b] | 0.12 (≈ 0.22 µM) | 0.5 (≈ 0.917 µM) | ≤ 0.06 | ≤ 0.06 | 0.5 (≈ 0.917 µM) | – | – | 4 (≈ 7.34 µM) | 8 (≈ 14.7 µM) | – | – | 128 (≈ 235 µM) | 0.25 (≈ 0.459 µM) | 64 (≈ 117 µM) | ≤ 0.06 | 64 (≈ 117 µM) | MIC [3, 12]: 4 µg/mL (≈ 7.34 µM); MIC [5, 13]: 16 µg/mL (≈ 29.4 µM); MIC (H. influenzae ATCC 49247; [14]): 16 µg/mL (≈ 29.4 µM)
CSC1O[C@H]([C@H](NC(=O)[C@H]2NC[C@@H]3C[C@@H](c4ccc(C(F)(F)F)cc4)CCO[C@H]32)[C@H](C)Cl)C(O)[C@@H](O)[C@H]1O (stereo partly drawn) [FSA-509019] | ≤ 0.06 | – | ≤ 0.06 | ≤ 0.06 | – | 16 (≈ 27.4 µM) | – | 16 (≈ 27.4 µM) | 32 (≈ 54.9 µM) | – | 1 (≈ 1.72 µM) | – | 0.25 (≈ 0.429 µM) | 64 (≈ 110 µM) | 0.125 (≈ 0.214 µM) | – | MIC [3]: 16 µg/mL (≈ 27.4 µM); MIC [5]: 32 µg/mL (≈ 54.9 µM); MIC ([6]; E. faecalis MMX 847 Macrolide-Resistant (MacRes)): 64 µg/mL (≈ 110 µM)
CSC1O[C@H]([C@H](NC(=O)[C@H]2NC[C@@H]3C[C@H](c4ccc(C#N)cc4)CCO[C@H]32)[C@H](C)Cl)C(O)[C@@H](O)[C@H]1O (stereo partly drawn) [FSA-512081b] | 0.25 (≈ 0.463 µM) | 1 (≈ 1.85 µM) | ≤ 0.06 | ≤ 0.06 | – | – | – | 8 (≈ 14.8 µM) | 32 (≈ 59.3 µM) | 16 (≈ 29.6 µM) | 1 (≈ 1.85 µM) | 128 (≈ 237 µM) | 1 (≈ 1.85 µM) | 128 (≈ 237 µM) | 0.12 (≈ 0.222 µM) | 128 (≈ 237 µM) | MIC [3]: 16 µg/mL (≈ 29.6 µM); MIC [5]: 32 µg/mL (≈ 59.3 µM)
CSC1O[C@H]([C@H](NC(=O)[C@H]2NC[C@@H]3CC(c4ccc(C)cc4)=CCO[C@H]32)[C@H](C)Cl)C(O)[C@@H](O)[C@H]1O (stereo partly drawn) [FSA-511019] | – | 0.5 (≈ 0.949 µM) | 0.25 (≈ 0.474 µM) | 0.125 (≈ 0.237 µM) | – | – | – | 32 (≈ 60.7 µM) | 64 (≈ 121 µM) | 64 (≈ 121 µM) | 4 (≈ 7.59 µM) | > 64 | – | – | – | – | MIC (S. aureus ATCC 29213; [15]): 0.5 µg/mL (≈ 0.949 µM); MIC (K. pneumoniae ATCC 10031; [10]): > 64 µg/mL
CSC1O[C@H]([C@H](NC(=O)[C@H]2NC[C@@H]3CC(c4ccc(C#N)cc4)=CCO[C@H]32)[C@H](C)Cl)C(O)[C@@H](O)[C@H]1O (stereo partly drawn) [FSA-511033] | 0.5 (≈ 0.929 µM) | 1 (≈ 1.86 µM) | ≤ 0.06 | ≤ 0.06 | – | 64 (≈ 119 µM) | – | 32 (≈ 59.5 µM) | 64 (≈ 119 µM) | 64 (≈ 119 µM) | 2 (≈ 3.72 µM) | > 64 | – | – | – | – | –
COc1ccc([C@@H]2CCO[C@@H]3[C@H](CN[C@@H]3C(=O)N[C@H]([C@H](C)Cl)[C@H]3OC(SC)[C@H](O)[C@H](O)C3O)C2)cc1 (stereo partly drawn) [FSA-512080c] | 0.25 (≈ 0.459 µM) | 0.5 (≈ 0.917 µM) | ≤ 0.06 | ≤ 0.06 | – | – | – | 8 (≈ 14.7 µM) | 32 (≈ 58.7 µM) | 32 (≈ 58.7 µM) | 2 (≈ 3.67 µM) | > 128 | 0.5 (≈ 0.917 µM) | 128 (≈ 235 µM) | 0.12 (≈ 0.22 µM) | 128 (≈ 235 µM) | MIC [3, 12]: 16 µg/mL (≈ 29.4 µM); MIC [5, 13]: 64 µg/mL (≈ 117 µM)
CSC1O[C@H]([C@H](NC(=O)[C@H]2NC[C@@H]3C[C@@H](c4ccc(C#N)cc4)CCO[C@H]32)[C@H](C)Cl)C(O)[C@@H](O)[C@H]1O (stereo partly drawn) [FSA-512081a] | – | – | – | – | 0.5 (≈ 0.926 µM) | – | – | – | – | – | – | – | 1 (≈ 1.85 µM) | 128 (≈ 237 µM) | < 0.06 | 64 (≈ 119 µM) | MIC (S. aureus ATCC 29213; S. aureus ATCC 29213): 0.25 µg/mL (≈ 0.463 µM); MIC [3, 12]: 4 µg/mL (≈ 7.41 µM); MIC (S. pyogenes ATCC 19615): ≤0.06 µg/mL; MIC [5]: 16 µg/mL (≈ 29.6 µM); MIC (E. coli MP-9 ΔTolC): 4 µg/mL (≈ 7.41 µM); MIC [2]: 16 µg/mL (≈ 29.6 µM); MIC (H. influenzae ATCC 49247; H. influenzae ATCC 49247): 16 µg/mL (≈ 29.6 µM)
CSC1O[C@H]([C@H](NC(=O)[C@H]2NC[C@@H]3CC(NCc4ccc(F)cc4)CCO[C@H]32)[C@H](C)Cl)C(O)[C@@H](O)[C@H]1O (stereo partly drawn) [FSA-510074] | 64 (≈ 114 µM) | 64 (≈ 114 µM) | 32 (≈ 56.9 µM) | 8 (≈ 14.2 µM) | > 64 | > 64 | > 64 | > 64 | > 64 | > 64 | – | – | – | – | – | – | –
CSC1O[C@H]([C@H](NC(=O)[C@H]2NC[C@@H]3CCCCO[C@@H]32)[C@H](C)Cl)C(O)[C@@H](O)[C@H]1O (stereo partly drawn) [FSA-504062] | 2 (≈ 4.56 µM) | 1 (≈ 2.28 µM) | 0.25 (≈ 0.57 µM) | 0.12 (≈ 0.273 µM) | – | > 64 | > 64 | > 64 | > 64 | > 64 | 32 (≈ 72.9 µM) | – | – | – | – | – | –
COc1ccc(C2CCO[C@@H]3[C@H](CN[C@@H]3C(=O)N[C@H]([C@H](C)Cl)[C@H]3OC(SC)[C@H](O)C(O)C3O)C2)cc1 (stereo partly drawn) [FSA-511045] | – | 0.25 (≈ 0.459 µM) | ≤ 0.06 | ≤ 0.06 | – | – | – | 8 (≈ 14.7 µM) | 32 (≈ 58.7 µM) | – | 1 (≈ 1.83 µM) | > 64 | – | – | – | – | MIC (S. aureus ATCC 29213; [15]): 0.5 µg/mL (≈ 0.917 µM); MIC (K. pneumoniae ATCC 10031; [10]): 16 µg/mL (≈ 29.4 µM); MIC (H. influenzae ATCC 49247; [14]): 16 µg/mL (≈ 29.4 µM)
